Data: patent US5418236A, “Anxiolytic aroyl piperidinyl and piperazinylacyl pyrroles” (Ortho Pharmaceutical Corporation, priority 1993, dated 1995)
Like-named read-outs stand apart in the source and are kept apart here.

Tests used:
α1 receptor = test: binding to the α1 receptor; details: for inhibition in binding to the α1 receptor: 1 μM
5-HT1A receptor = target: T1, 5-HT1A receptor (Rattus norvegicus, UniProt P19327); test: 5-HT1A assay (competitive binding, 3H-8-hydroxy-DPAT, cerebral cortex P2 fraction); set-up: species or system male, Wistar rats
T1 construct: P2 fraction (synaptosomal membranes) from the cerebral cortex of male, Wistar rats; from tissue; host or cells: cerebral cortex of male Wistar rats, P2 fraction (synaptosomal membranes)
T1 sequence (P19327 1-422): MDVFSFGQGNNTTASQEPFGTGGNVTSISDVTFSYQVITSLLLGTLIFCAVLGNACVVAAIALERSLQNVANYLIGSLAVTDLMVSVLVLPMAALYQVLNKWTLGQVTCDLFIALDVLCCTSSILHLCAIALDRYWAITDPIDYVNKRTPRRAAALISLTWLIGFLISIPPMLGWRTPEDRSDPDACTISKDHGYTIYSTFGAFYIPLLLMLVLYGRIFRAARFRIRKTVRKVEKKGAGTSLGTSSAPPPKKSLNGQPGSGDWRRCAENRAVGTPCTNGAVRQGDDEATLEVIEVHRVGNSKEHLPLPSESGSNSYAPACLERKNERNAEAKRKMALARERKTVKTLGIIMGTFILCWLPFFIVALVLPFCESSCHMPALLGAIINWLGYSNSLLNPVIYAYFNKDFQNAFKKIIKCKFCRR
Experimental: The 5-HT1A assay used a P2 fraction (synaptosomal membranes) from the cerebral cortex of male, Wistar rats. The ligand ^3 H-8-hydroxy-DPAT was used in competitive binding experiments at a concentration of 3 nM, and 1 mM serotonin as a blank determinant. Incubation was in 3 mM potassium phosphate buffer for 20 min at 25° C.
The data from each assay were analyzed by calculating the percent inhibition of the binding of the tritiated ligands by given concentrations of the test compound. Ki values, where given, were obtained from the logit analysis of concentration-inhibition curves.

5-HT2 receptor = 5-HT2 receptor (Rattus norvegicus, UniProt P14842); test: binding to the 5-HT2 receptor; details: 1 μM
Sequence of 5-HT2 receptor (P14842 whole entry): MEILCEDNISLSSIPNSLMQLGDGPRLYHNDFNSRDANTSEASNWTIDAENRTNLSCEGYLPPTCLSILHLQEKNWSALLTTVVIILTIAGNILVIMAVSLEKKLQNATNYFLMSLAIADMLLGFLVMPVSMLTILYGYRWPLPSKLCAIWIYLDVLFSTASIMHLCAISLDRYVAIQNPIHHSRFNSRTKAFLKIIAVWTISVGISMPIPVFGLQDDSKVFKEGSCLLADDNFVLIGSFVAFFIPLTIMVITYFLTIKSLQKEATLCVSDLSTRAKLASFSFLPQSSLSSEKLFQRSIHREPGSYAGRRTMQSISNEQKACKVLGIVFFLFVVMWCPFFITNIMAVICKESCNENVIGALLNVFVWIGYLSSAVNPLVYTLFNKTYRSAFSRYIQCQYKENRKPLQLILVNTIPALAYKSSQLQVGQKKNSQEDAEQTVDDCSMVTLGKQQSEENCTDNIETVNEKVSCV

D2 receptor [1] = target: D2 receptor (Rattus norvegicus, UniProt P61169); test: binding to the D2 receptor; details: 1 μM
Sequence of D2 receptor (Rattus norvegicus, UniProt P61169) (P61169 whole entry): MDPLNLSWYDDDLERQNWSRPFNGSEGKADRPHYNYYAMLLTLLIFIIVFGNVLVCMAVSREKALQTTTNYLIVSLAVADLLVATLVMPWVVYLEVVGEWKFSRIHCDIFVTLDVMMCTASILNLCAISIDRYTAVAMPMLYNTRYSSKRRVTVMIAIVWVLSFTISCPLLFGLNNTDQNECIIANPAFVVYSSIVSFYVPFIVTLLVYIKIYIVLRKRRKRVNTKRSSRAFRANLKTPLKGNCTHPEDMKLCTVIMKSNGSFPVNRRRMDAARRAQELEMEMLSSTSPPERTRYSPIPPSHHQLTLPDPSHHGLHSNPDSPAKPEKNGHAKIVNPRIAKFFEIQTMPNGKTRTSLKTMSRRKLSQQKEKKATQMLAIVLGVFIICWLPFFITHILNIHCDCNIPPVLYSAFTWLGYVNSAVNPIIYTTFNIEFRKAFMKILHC

Male rats = test: anxiolytic activity: release of behavior suppressed by punishment (Vogel conflict test); type: in vivo
Experimental: The anxiolytic activity of selected compounds of the invention was assessed by determining their ability to release (disinhibit) behavior that had been suppressed by punishment (Vogel, J. R. et al. Psychopharmacology 1971, 21, 1). Male rats were deprived of water for 48 hours and were deprived of food for 24 hours prior to testing. After the first 24 hours of water deprivation, they were placed in the conflict chamber for a training period; wherein, they were allowed 200 unpunished licks from a bottle containing tap water. The experiment was run the next day. At the expected time of peak activity, the animals were placed in the chamber and allowed access to tap water. […] Their first lick initiates a 3-min test session. Subsequently,every 20th lick was punished by a 0.2-s shock delivered via the stainless-steel drinking-tube. Vehicle-treated control animals generally were willing to accept a median number of 3 to 8 shocks per test session. […] The Wilcoxon rank-sum test (Mann-WhitneyU-test) was used to test for an increase (p<0.05, 1-tailed) in the median number of shocks in drug-treated groups, compared to a concurrently run vehicle-treated group. The biological assay is considered to be valid if the effects of a known anxiolytic (positive control) are detected, within the same experiment. […]

D2 receptor [2] = target: D2 receptor (Homo sapiens, UniProt P14416); details: background statement; cited from earlier work
Sequence of D2 receptor (Homo sapiens, UniProt P14416) (P14416 whole entry): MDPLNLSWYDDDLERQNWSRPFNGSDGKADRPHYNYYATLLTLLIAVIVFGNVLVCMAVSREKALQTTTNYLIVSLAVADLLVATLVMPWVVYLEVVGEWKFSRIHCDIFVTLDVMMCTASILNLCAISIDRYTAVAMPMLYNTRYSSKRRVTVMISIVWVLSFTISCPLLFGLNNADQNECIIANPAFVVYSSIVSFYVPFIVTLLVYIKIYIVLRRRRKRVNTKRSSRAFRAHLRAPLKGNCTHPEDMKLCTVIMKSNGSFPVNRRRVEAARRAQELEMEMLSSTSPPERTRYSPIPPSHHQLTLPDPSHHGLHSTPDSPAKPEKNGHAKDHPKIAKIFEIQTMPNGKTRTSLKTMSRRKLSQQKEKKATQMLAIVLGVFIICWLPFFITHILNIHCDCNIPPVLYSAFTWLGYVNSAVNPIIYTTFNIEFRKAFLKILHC

[3] = 3H-8-hydroxy-DPAT 3 nM, 20 min, 25° C., rat cerebral cortex P2 fraction, read-out: Ki (5HT1A)
[4] = 3H-8-hydroxy-DPAT 3 nM, 20 min, 25° C., rat cerebral cortex P2 fraction

SMILES: Cn1cc(C(=O)CN2CCN(c3ncccn3)CC2)cc1C(=O)c1ccc([N+](=O)[O-])cc1 [Example 5, 1-[1-Methyl-5-(4-nitrobenzoyl)-1H-pyrrol-3-yl]-2-[4-(2-pyrimidinyl)-1-piperazinyl]ethanone]
- inhibition in binding to the α1 receptor (α1 receptor): no inhibition
- Ki (5-HT1A receptor; [3]): 7.7 nM
- inhibition in binding to the 5-HT2 receptor (5-HT2 receptor): no inhibition
- inhibition in binding to the D2 receptor (D2 receptor [1]): no inhibition
- change in responding (Male rats; 5 mg/kg IP): 240%

SMILES: Cc1c(C(=O)CN2CCN(c3ncccn3)CC2)c(C)n(C)c1C(=O)c1ccc(Cl)cc1 [Example 6-1]
- inhibition at 1 µM (5-HT1A receptor; [4]): 24%

SMILES: Cn1cc(C(=O)CN2CCN(c3ccccn3)CC2)cc1C(=O)c1ccc(Cl)cc1 [Example 6-2]
- inhibition at 1 µM (5-HT1A receptor; [4]): 94%

SMILES: CC(C)Oc1ccccc1N1CCN(CC(=O)c2cc(C(=O)c3ccccc3Cl)n(C)c2)CC1 [Example 6-3]
- inhibition at 1 µM (5-HT1A receptor; [4]): 83%

SMILES: Cn1cc(C(=O)CN2CCN(c3ncccn3)CC2)cc1C(=O)c1ccc(F)cc1 [Example 6-4]
- inhibition at 1 µM (5-HT1A receptor; [4]): 91%

SMILES: Cn1cc(C(=O)CN2CCN(c3cccc4ccccc34)CC2)cc1C(=O)c1ccc(Cl)cc1 [Example 6-5]
- inhibition at 1 µM (5-HT1A receptor; [4]): 67%

SMILES: Cc1c(C(=O)CCCCN2CCN(c3ncccn3)CC2)c(C)n(C)c1C(=O)c1ccc(Cl)cc1 [Example 6-6]
- Ki (5-HT1A receptor; [3]): 6 nM

SMILES: Cl.Cn1cc(C(=O)CN2CCC(O)(c3ccc(Cl)cc3)CC2)cc1C(=O)c1ccccc1Cl [Example 7, 1-[5-(2-Chlorobenzoyl)-1-methyl-1H-pyrrol-3-yl]-2-[4-(4-chlorophenyl)-4-hydroxy-1-piperidinyl]ethanone Hydrochloride]
- inhibition in binding to the α1 receptor (α1 receptor): no inhibition
- Ki (5-HT1A receptor): 15 nM
- inhibition in binding to the 5-HT2 receptor (5-HT2 receptor): no inhibition
- inhibition in binding to the D2 receptor (D2 receptor [1]): no inhibition
- change in responding (Male rats; 10 mg/kg IP): 180%

SMILES: Cn1cc(C(=O)CN2CCC(c3ccccc3)CC2)cc1C(=O)c1ccc(Cl)cc1 [Example 8, 1-[5-(4-chlorobenzoyl)-1-methyl-1H-pyrrol-3-yl]-2-(4-phenylpiperidinyl)-ethanone]
- inhibition at 1 µM (5-HT1A receptor; [4]): 69%

SMILES: COc1cccc(OC)c1OCCNCC1COc2ccccc2O1 (stereo not drawn) [WB4101, reference compound]
- Ki (5-HT1A receptor; [3]): 0.32 nM

SMILES: O=C1CC2(CCCC2)CC(=O)N1CCCCN1CCN(c2ncccn2)CC1 [buspirone]
- binding to the D2 receptor (D2 receptor [2]): binds to the D2 receptor
- Ki (α1 receptor): 138 nM

SMILES: Cc1ccc(N(CC2=NCCN2)c2cccc(O)c2)cc1 [phentolamine, reference compound]
- Ki (5-HT1A receptor): 59 nM
